These results are taken from paper PMC10485003, “Antibiotic hyper-resistance in a class I aminoacyl-tRNA synthetase with altered active site signature motif” (Nature Communications, 2023).

Experiment [1] deals with T1, mut-GVHH TtIleRS2 (Thermus thermophilus, UniProt P56690, G56H/H54G).
T1 construct: hexa-histidine tag (pET28b(+)) (N); made in house; host or cells: E. coli Rosetta2 (DE3)
T1 sequence (P56690 1-1043 H54G/G56H): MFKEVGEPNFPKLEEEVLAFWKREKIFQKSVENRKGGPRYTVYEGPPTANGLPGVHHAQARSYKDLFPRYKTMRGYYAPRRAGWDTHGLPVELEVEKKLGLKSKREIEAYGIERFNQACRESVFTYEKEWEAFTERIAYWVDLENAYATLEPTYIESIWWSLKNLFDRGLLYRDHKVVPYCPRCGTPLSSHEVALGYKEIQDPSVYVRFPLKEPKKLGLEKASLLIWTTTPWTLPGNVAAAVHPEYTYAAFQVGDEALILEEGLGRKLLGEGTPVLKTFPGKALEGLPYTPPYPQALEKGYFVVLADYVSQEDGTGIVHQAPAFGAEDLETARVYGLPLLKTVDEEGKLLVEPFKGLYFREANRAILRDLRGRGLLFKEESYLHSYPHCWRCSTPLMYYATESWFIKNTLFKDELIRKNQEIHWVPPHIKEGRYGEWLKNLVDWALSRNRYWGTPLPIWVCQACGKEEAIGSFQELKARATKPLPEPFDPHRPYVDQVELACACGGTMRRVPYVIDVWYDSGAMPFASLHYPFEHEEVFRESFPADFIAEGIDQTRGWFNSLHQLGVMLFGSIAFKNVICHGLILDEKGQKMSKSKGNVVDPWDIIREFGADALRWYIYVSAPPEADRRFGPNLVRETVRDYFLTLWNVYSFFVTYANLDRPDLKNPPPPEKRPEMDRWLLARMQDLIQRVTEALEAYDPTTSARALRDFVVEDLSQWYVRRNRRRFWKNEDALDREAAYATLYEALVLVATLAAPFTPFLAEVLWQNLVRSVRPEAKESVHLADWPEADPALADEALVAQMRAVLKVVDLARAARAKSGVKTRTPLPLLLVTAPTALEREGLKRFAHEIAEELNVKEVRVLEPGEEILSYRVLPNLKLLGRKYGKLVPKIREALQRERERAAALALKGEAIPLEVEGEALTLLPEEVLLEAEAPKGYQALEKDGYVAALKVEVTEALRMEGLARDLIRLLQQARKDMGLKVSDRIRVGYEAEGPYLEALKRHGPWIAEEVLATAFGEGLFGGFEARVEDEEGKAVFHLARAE
As to the kind of experiment: biochemical. How it is done:
(§1) L-Ile and ATP concentrations ranged from 1/10 KM to 10 KM values. When measuring the KI towards one of the substrates, the other was held in saturation (concentrations at least 10 KM). The aliquots of the reaction mixture (1–2.5 μl) were quenched in 2 volumes of 500 mM NaOAc pH = 4.5, 0.1% SDS, and formed ^32P-ATP was separated from the remaining ^32P-PPi by thin-layer chromatography on Polygram CEL 300 PEI UV254 TLC plates (Macherey-Nagel, cat: 801063) using 750 mM KH2PO4 pH=3.5, 4 M urea buffer. Visualization and quantification of the signals was performed using a Typhoon Phosphoimager 5 (General Electric) and accompanying ImageQuant™ TL software (SV: 10.2). The kinetic constants were determined using a global fit option of the competitive inhibition model of GraphPad Prism 6 software (SV: 6.01). All experiments were performed in triplicates. The kcat was determined by dividing the maximal velocity, VM, with the used enzyme concentration. […]
(§2) variable substrate (ATP or Ile) was varied in the range of 0.1 KM to 10 KM. The other substrate (Ile or ATP) was kept in excess at 5 to 10 KM. Data were globally fitted to the competitive inhibition model using GraphPad prism 6.01 for Windows software. The values represent the average value ± SD of three independent experiments. Source data are provided as a Source Data file.
(§3) (1 picture or pasted object on this page, not shown here)

Experiment [2] concerns the target T2, mut-HVGH DrIleRS2 (Deinococcus radiodurans, UniProt Q9RUP8, A59H/H61G/L60V).
T2 construct: hexa-histidine tag (pET28b(+)) (N); made in house; host or cells: E. coli BL21(DE3)
T2 sequence (Q9RUP8 1-1078 A59H/L60V/H61G): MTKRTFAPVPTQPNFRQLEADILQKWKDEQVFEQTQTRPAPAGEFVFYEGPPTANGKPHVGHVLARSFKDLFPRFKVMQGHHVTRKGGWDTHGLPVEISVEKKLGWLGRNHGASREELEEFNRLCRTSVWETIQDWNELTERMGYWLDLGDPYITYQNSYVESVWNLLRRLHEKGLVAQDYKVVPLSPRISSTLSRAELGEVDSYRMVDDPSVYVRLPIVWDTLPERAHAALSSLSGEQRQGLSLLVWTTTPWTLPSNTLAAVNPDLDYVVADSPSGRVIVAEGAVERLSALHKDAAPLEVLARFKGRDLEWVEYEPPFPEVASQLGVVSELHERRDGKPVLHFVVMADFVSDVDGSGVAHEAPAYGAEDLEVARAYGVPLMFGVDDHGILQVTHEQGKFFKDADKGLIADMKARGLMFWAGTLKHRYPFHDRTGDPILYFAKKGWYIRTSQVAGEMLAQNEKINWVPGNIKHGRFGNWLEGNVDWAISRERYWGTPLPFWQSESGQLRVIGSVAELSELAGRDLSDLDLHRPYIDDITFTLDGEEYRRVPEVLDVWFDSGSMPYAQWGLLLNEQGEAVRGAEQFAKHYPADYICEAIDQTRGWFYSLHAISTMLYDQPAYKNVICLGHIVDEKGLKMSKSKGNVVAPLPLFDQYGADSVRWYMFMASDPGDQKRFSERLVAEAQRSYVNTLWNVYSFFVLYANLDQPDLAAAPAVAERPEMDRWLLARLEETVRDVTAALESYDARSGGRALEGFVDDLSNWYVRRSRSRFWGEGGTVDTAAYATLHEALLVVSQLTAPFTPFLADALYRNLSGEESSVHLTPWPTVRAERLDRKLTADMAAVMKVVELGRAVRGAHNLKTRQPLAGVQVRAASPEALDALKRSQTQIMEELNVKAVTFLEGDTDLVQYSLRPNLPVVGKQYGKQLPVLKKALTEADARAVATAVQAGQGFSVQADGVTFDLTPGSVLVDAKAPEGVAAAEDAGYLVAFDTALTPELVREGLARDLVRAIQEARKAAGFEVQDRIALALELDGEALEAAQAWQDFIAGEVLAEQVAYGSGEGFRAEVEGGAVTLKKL
Put plainly: biochemical. The protocol: as §1, §2, §3

Experiment [3] deals with E. coli IleRS1. On the set-up: method as in earlier work. As to conditions: aminoacylation, with tRNA; cited from earlier work.
Where [4] appears, read: KI (MUP)ATP, amino acid activation assay, ATP as variable substrate, average ± SD of three independent experiments.
[5] abbreviates: KI (MUP)Ile, amino acid activation step, ATP/PPi exchange assay, Ile varied, ATP saturating, average ± SD of three independent experiments.
Setting [6] is: KI, single replicates, mupirocin inhibition towards Ile, GraphPad Prism output, Repl1-Repl3.

The structures appear in SMILES notation. Where “and” joins values, the source holds several entries; their conditions need not be identical. Identical values can stand only once.

Consider `C/C(=C\C(=O)OCCCCCCCCC(=O)O)C[C@@H]1OC[C@H](C[C@@H]2O[C@H]2[C@@H](C)[C@H](C)O)[C@@H](O)[C@H]1O` [mupirocin], for which the Ki (in general, a measure of affinity in units of concentration, obtained from inhibition or displacement) in experiment [1] (setting [4]) is 34 ± 2 µM; in experiment [1] (setting [5]) it was 35 ± 2 µM; in experiment [1] (setting [6]), 34 µM and 35 µM and 36 µM; in experiment [2] (setting [4]), 9.3 ± 0.4 µM; in experiment [2] (setting [5]), 8.1 ± 0.3 µM; in experiment [2] (setting [6]), 7.8 µM and 8.4 µM (2×). Besides, the Ki in experiment [3] is 2.5 nM.
